Experimental data: patent publication US20090143450A1, “METHOD FOR TREATING CENTRAL PAIN SYNDROM OR FOR INDUCING CENTRALLY GENERATED PAIN IN AN ANIMAL MODEL” (UNIVERSITY OF MARYLAND, BALTIMORE, priority 2005, published 2009)

Legend:
CA1 cells = assay: Plateau potentials evoked by glutamate photolysis on CA1 cell dendrites in hippocampal slice cultures; assay type: cell-based; conditions: compared with control CA1 cells
Excerpt: It may be expected based on previous studies in the laboratory of the present inventor that partial denervation and removal of the majority of the excitatory input to area CA1 would result in a quiescent population of cells. In fact, local stimulation within area CA1 triggers prolonged, abnormally oscillatory synaptic responses in lesioned cultures that are never seen in normally innervated tissue (FIG. 1, top row), but only with a delay of 7 or more days after the injury (Wei et al., 2003). The reason is […] that denervation increases glutamate receptor expression in CA1 cells, akin to the well known phenomenon of denervation suprasensitivity in muscle. To confirm, the laboratory of the present inventor used photolysis of caged glutamate to compare the responses of CA1 cell dendrites in lesioned and unlesioned cultures.
In control cultures, distal, terminal dendritic branches of CA1 cells respond to weak photolysis of glutamate with passive subthreshold depolarizations. Stronger glutamate applications, however, trigger all-or-none Ca^2+-sensitive responses that are called plateau potentials (Wei et al., 2001). […] Plateau potentials, in contrast, are accompanied by Ca^2+ signals that can be seen throughout the stimulated dendrite within milliseconds, indicative of their rapid electrical propagation along the entire stimulated branch.

[1] = tested on: animals with lesioned spinothalamic tracts; assay: von Frey filament test for allodynia after spinothalamic tract transection; assay type: in vivo, rat; conditions: 500 mg/kg intraperitoneally; FIG. 4B
Description: (§1) Spinothalamic tract transection. The spinothalamic tract is transected bilaterally at the level of the thoracic/lumbar border, thereby severing the ascending pathways conveying somatosensory, thermal and nociceptive information to the cortex via the thalamus. Male, adult Sprague-Dawley rats (ca. 200 gm) are anesthetized with pentobarbital and a T8 laminectomy is performed. The dura is opened with the tip of a 21 g. syringe needle to expose the spinal cord. The spinal cord is then lifted and rotated using a fine, sterile glass rod, and the ventral lateral pain pathways are severed electrolytically using a 1 MΩ sharpened tungsten needle and a 45 V pulse for 1 min. The lesion is packed with a small piece of sterile gelfoam. The overlying muscles and skin are closed and sutured, and the animal is allowed to recover on a 37° C. heating pad. Sham-operated controls undergo a laminectomy without dural penetration or spinal injury. This spinal transection procedure is a useful model of central pain syndrome where increased pain sensitivity and allodynia were observed. At various times after the lesion, standard behavioral tests were completed to assay the threshold for a stimulus to be perceived as painful, and allodynia was performed on awake, behaving animals. […] The paw withdrawal latency is automatically recorded when the rat withdraws its paw from the stimulus. […]

[2] = tested on: animals with lesioned spinothalamic tracts; assay: Paw withdrawal latency test for hyperalgesia after spinothalamic tract transection; assay type: in vivo, rat; conditions: 500 mg/kg intraperitoneally; FIG. 4A
Description: as §1

| Compound | prolongation of plateau potentials in denervated CA1 cells (CA1 cells) | allodynia (von Frey's test) [1] | hyperalgesia (paw withdrawal latency) [2] |
| --- | --- | --- | --- |
| O=C(O)CN(CC(=O)O)c1ccccc1OCCOc1ccccc1N(CC(=O)O)CC(=O)O [BAPTA] | occluded | – | – |
| CC[N+](CC)(CC)CC [TEA] | occluded | – | – |
| CCC1(C)CC(=O)NC1=O (stereo not shown) [ethosuximide, 2-methyl-2-ethyl succinimide] | – | reduced transiently | reduced transiently |
